Measurements: publication PMC12059162 (Scientific Reports, 2025)

How the values were obtained:
PANC-1 cells [1] = assay: xCELLigence SP impedimetric cell viability; details: Homo sapiens, PANC-1, 72 h
EBC-1 cells = assay: alamarBlue cell viability; details: Homo sapiens, EBC-1, 72 h
[2] = cited from earlier work
caspase-3/7 = assay: CellEvent Caspase-3/7 activity imaging in PANC-1 cells; details: PANC-1, 0.5 µM, 72 h, normalised to DMSO control (n = 1)
phospho-p53 (S15) = assay: Human Apoptosis Array in PANC-1 cells; details: PANC-1, 0.5 µM, 72 h
MIA PaCa-2 cells [3] = assay: Cell cycle analysis (PI, flow cytometry); details: MIA PaCa-2, 0.5 µM, 48 h
PANC-1 cells [4] = assay: Annexin-V/7AAD early and late apoptosis flow cytometry; assay type: cell-based, human; details: PANC-1, 0.5 µΜ, 72 h
Method: For apoptosis measurements, Annexin-V positive/7AAD (7-Aminoactinomycin D) negative, early apoptotic and Annexin-V/ 7AAD double positive, late apoptotic cells were differentiated using a BD FACSCalibur (BD FACSCalibur, Becton-Dickinson, San Jose, CA, USA) flow cytometer[49],[50]. […] After 24, 48, and 72 h treatment, cells were harvested with 300 µL TrypLE (Sigma Ltd. St. Louis, MO, USA). Fresh cell culture medium was then added to stop the effect of TrypLE and the harvested cells were centrifuged for 5 min (300 g). Then, the supernatant was removed, and cells were resuspended in 300 µL of Annexin binding buffer (Sony Biotechnology, Weybridge, UK). For labelling, 3–3 µL of Annexin-V-FITC (Sony Biotechnology, Weybridge, UK) and 7AAD (Sony Biotechnology, Weybridge, UK) were added, followed by 10 min incubation at room temperature in the dark. For flow cytometric analysis (BD FACSCalibur, Becton–Dickinson, San Jose, CA, USA), a minimum of 10^4 cells/sample was measured. Annexin-V was detected using the FL-1 channel (530/30), and 7AAD was detected using the FL-3 channel (670 LP). In each treatment group, 3 parallel samples were analysed. The results were evaluated using Flowing Software 2.5.1 (Turku Centre of Biotechnology, Turku, Finland).

HSP60 = assay: Human Apoptosis Array in PANC-1 cells; details: PANC-1, 0.5 µM, 72 h
PANC-1 cells [5] = assay: Cell cycle analysis (PI, flow cytometry)
PANC-1 cells [6] = assay: Holographic microscopy morphometry (HoloMonitor M4); assay type: cell-based, human; details: PANC-1, 0.5 µM, 72 h
Method: To follow the morphometric changes, a holographic transmission microscope (HoloMonitor M4; Phase Holographic Imaging AB, Lund, Sweden) was used, which uses a laser to produce 3D images of the cells[51],[52]. This […] imaging technique allows us to monitor cell morphological changes in real-time. First, the cells were seeded at a concentration of 3.5 × 10^5 cells/flask/4000 µL cell culture medium. […] At least 5 images were taken from each culture dish, taking care to assess different fields of view. These images were evaluated using the microscope software (Hstudio M4). We assessed the average area and the average optical thickness of the cells.

phospho-p53 (S46) = assay: Human Apoptosis Array in PANC-1 cells; details: PANC-1, 0.5 µM, 72 h
TRAIL = assay: qPCR apoptotic gene expression in PANC-1 cells; details: PANC-1, 25 µM, any of the time points (3-48 h)
in vitro [7] = details: human
FADD = assay: Human Apoptosis Array in PANC-1 cells; details: PANC-1, 0.5 µM, 72 h
cleaved caspase-3 = assay: Human Apoptosis Array in PANC-1 cells; details: PANC-1, 0.5 µM, 72 h
SMAC = assay: Human Apoptosis Array in PANC-1 cells; details: PANC-1, 0.5 µM, 72 h
p53 = assay: qPCR apoptotic gene expression in PANC-1 cells; details: PANC-1, 25 µM, 48 h, normalised to DMSO control
COLO-205 cells = assay: alamarBlue cell viability; details: Homo sapiens, COLO 205, 72 h, read-out: Viability (%) after 72-h treatment
phospho-p53 (S392) = assay: Human Apoptosis Array in PANC-1 cells; details: PANC-1, 0.5 µM, 72 h
in vitro [8] = details: mouse
A2058 cells = assay: alamarBlue cell viability; details: Homo sapiens, A2058, 72 h, read-out: Viability (%) after 72-h treatment
MIA PaCa-2 cells [9] = assay: alamarBlue cell viability; details: Homo sapiens, MIA PaCa-2, 72 h
cIAP-1 = assay: Human Apoptosis Array in PANC-1 cells; details: PANC-1, 0.5 µM, 72 h
XIAP = assay: Human Apoptosis Array in PANC-1 cells; details: PANC-1, 0.5 µM, 72 h
[10] = read-out: IC50 values (μM) 72 hours
[11] = read-out: Viability (%) after 72-h treatment

Question: With `Cc1ccccc1CN1C(=O)C2=C(CCN(Cc3ccccc3)C2)N2CCN=C12` [ONC201, reference compound] as the compound, how does the IC50 (PANC-1 cells [1]; [10]) read?
Answer: 6.1 µM

Question: And the viability at 0.5 µM (PANC-1 cells [1]; [11])?
Answer: 105 ± 5.2%

Question: What about the viability at 10 µM (PANC-1 cells [1]; [11]) of the same compound?
Answer: 16 ± 2.4%

Question: What about the viability at 25 µM (PANC-1 cells [1]; [11]) of the same compound?
Answer: 10.2 ± 2.2%

Question: What about the IC50 (EBC-1 cells; [10]) of the same compound?
Answer: 5.72 µM

Question: What about the viability at 0.5 µM (EBC-1 cells; [11]) of the same compound?
Answer: 101 ± 1.6%

Question: And the viability at 10 µM (EBC-1 cells; [11])?
Answer: 47.1 ± 2.2%

Question: And the viability at 25 µM (EBC-1 cells; [11])?
Answer: 45.5 ± 2%

Question: What about the logP [2] of the same compound?
Answer: 2.3

Question: And the “Number of caspase-3/7 active cells, increase” value (caspase-3/7)?
Answer: 6.6 fold

Question: And the “phospho-p53 (S15) protein level” value (phospho-p53 (S15))?
Answer: significantly increased

Question: And the “Effect on cell cycle” value (MIA PaCa-2 cells [3])?
Answer: did not have any influence

Question: What about the Apoptosis-inducing effect (PANC-1 cells [4]) of the same compound?
Answer: no apoptosis-inducing effect

Question: And the HSP60 protein level (HSP60)?
Answer: increase

Question: And the “Effect on cell cycle” value (PANC-1 cells [5]; PANC-1, 0.5 µM, 48 h)?
Answer: did not have any influence

Question: What about the “Increase in cell number in the G2/M phase” value (PANC-1 cells [5]; PANC-1, 10 and 25 µM, 72 h) of the same compound?
Answer: 2.1 fold

Question: What about the “Effect on cell morphology” value (PANC-1 cells [6]) of the same compound?
Answer: did not affect cell morphology

Question: What about the “phospho-p53 (S46) protein level” value (phospho-p53 (S46)) of the same compound?
Answer: significantly increased

Question: What about the “TRAIL induction (mRNA)” value (TRAIL) of the same compound?
Answer: not detected

Question: What about the viability at 72 h, 0.37 µM (in vitro [7]) of the same compound?
Answer: 115 ± 1.4%

Question: And the viability at 72 h, 8.6 µM (in vitro [7])?
Answer: 88.3 ± 7.4%

Question: And the viability at 72 h, 25 µM (in vitro [7])?
Answer: 74.9 ± 8.6%

Question: And the FADD protein level (FADD)?
Answer: significantly increased

Question: And the “cleaved caspase-3 protein level” value (cleaved caspase-3)?
Answer: significantly increased

Question: What about the SMAC protein level (SMAC) of the same compound?
Answer: significantly increased

Question: What about the “p53 mRNA expression” value (p53) of the same compound?
Answer: 3.3 fold

Question: And the viability at 0.5 µM (COLO-205 cells)?
Answer: 97 ± 2.5%

Question: And the viability at 10 µM (COLO-205 cells)?
Answer: 69.7 ± 2.4%

Question: And the viability at 25 µM (COLO-205 cells)?
Answer: 71 ± 0.7%

Question: And the “phospho-p53 (S392) protein level” value (phospho-p53 (S392))?
Answer: significantly increased

Question: What about the viability at 72 h, 0.5 µM (in vitro [8]) of the same compound?
Answer: 99.4 ± 1.8%

Question: What about the viability at 72 h, 10 µM (in vitro [8]) of the same compound?
Answer: 89.2 ± 6.3%

Question: And the viability at 72 h, 25 µM (in vitro [8])?
Answer: 89 ± 5.6%

Question: What about the viability at 0.5 µM (A2058 cells) of the same compound?
Answer: 101 ± 1.7%

Question: And the viability at 10 µM (A2058 cells)?
Answer: 73.7 ± 4.5%

Question: And the viability at 25 µM (A2058 cells)?
Answer: 62.1 ± 8.7%

Question: And the IC50 (MIA PaCa-2 cells [9]; [10])?
Answer: 1.12 µM

Question: What about the viability at 0.5 µM (MIA PaCa-2 cells [9]; [11]) of the same compound?
Answer: 77.6 ± 2.3%

Question: What about the viability at 10 µM (MIA PaCa-2 cells [9]; [11]) of the same compound?
Answer: 44.6 ± 2%

Question: And the viability at 25 µM (MIA PaCa-2 cells [9]; [11])?
Answer: 55 ± 1.6%

Question: What about the cIAP-1 protein level (cIAP-1) of the same compound?
Answer: increase

Question: And the XIAP protein level (XIAP)?
Answer: increase
